Source: patent US8664257B2, “Oxygen-substituted 3-heteroaroylamino-propionic acid derivatives and their use as pharmaceuticals” (Sanofi, priority 2010, dated 2014)
pIC50: −log10 of the molar value.

These molecules were tested against T1, Recombinant human cathepsin A (Homo sapiens, UniProt P10619) (assay: Cathepsin A inhibitory activity). Details: read-out: Activity (2): Cathepsin A inhibitory activity, IC50 class.
T1 construct: Recombinant human cathepsin A (residues 29-480, with a C-terminal 10-His tag); 10-His (C); purchased R&D Systems 1049-SE
T1 sequence (P10619 29-312 limits assumed): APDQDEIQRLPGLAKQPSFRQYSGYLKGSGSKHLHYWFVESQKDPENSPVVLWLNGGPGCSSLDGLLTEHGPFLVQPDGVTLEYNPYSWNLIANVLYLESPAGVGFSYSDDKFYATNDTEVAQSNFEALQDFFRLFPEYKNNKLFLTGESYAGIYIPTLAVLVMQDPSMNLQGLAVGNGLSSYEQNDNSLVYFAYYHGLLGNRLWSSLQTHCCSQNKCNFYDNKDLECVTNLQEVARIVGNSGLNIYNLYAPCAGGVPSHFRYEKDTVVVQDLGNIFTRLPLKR
T1 sequence (P10619 327-480 limits assumed): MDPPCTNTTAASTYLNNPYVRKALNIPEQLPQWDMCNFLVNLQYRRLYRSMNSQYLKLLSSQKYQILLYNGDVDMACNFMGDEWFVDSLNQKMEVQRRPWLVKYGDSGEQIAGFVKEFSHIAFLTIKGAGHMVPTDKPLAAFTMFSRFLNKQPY
Type: biochemical
Method: a) Cathepsin A Inhibitory Activity
Recombinant human cathepsin A (residues 29-480, with a C-terminal 10-His tag; R&D Systems, #1049-SE) was proteolytically activated with recombinant human cathepsin L (R&D Systems, #952-CY). Briefly, cathepsin A was incubated at 10 μg/ml with cathepsin L at 1 μg/ml in activation buffer (25 mM 2-(morpholin-4-yl)-ethanesulfonic acid (MES), pH 6.0, containing 5 mM dithiothreitol (DTT)) for 15 min at 37° C. Cathepsin L activity was then stopped by the addition of the cysteine protease inhibitor E-64 (N-(trans-epoxysuccinyl)-L-leucine-4-guanidinobutylamide; Sigma-Aldrich, #E3132; dissolved in activation buffer/DMSO) to a final concentration of 10 μM.
The activated cathepsin A was diluted in assay buffer (25 mM MES, pH 5.5, containing 5 mM DTT) and mixed with the test compound (dissolved in assay buffer containing (v/v) 3% DMSO) or, in the control experiments, with the vehicle in a multiple assay plate. After incubation for 15 min at room temperature, as substrate then bradykinin carrying an N-terminal®Bodipy FL (4,4-difluoro-5,7-dimethyl-4-bora-3a,4a-diaza-s-indacene-3-propionyl) label (JPT Peptide Technologies GmbH; dissolved in assay buffer) was added to the mixture. The final concentration of cathepsin A was 833 ng/ml and the final concentration of labeled bradykinin 2 μM. After incubation for 15 min at room temperature the reaction was stopped by the addition of stop buffer (130 mM 2-(4-(2-hydroxy-ethyl)-piperazin-1-yl)-ethanesulfonic acid, pH 7.4, containing (v/v) 0.013% Triton X-100, 0.13% Coating Reagent 3 (Caliper Life Sciences), 6.5% DMSO and 20 μM ebelactone B (Sigma, # E0886)).
Uncleaved substrate and product were then separated by a microfluidic capillary electrophoresis on a LabChip® 3000 Drug Discovery System (12-Sipper-Chip; Caliper Life Sciences) and quantified by determination of the respective peak areas. Substrate turnover was calculated by dividing product peak area by the sum of substrate and product peak areas, and the enzyme activity and the inhibitory effect of the test compound thus quantified. From the percentage of inhibition of cathepsin A activity observed with the test compound at several concentrations, the inhibitory concentration IC50, i.e. the concentration which effects 50% inhibition of enzyme activity was, calculated.
`Cc1ccc(C)c(-n2nc(C(=O)NC(CC(=O)O)c3ccc(F)c(F)c3)cc2O)c1` (centres unmarked) [Example 47] was tested, and the pIC50 was 4.52 to 6.00.
Molecule `Cc1ccc(C)c(-n2nc(C(=O)NC(CC(=O)O)c3ccc(Cl)c(Cl)c3)cc2O)c1` (centres unmarked) [Example 48] has a pIC50 of 4.52 to 6.00.
`Cc1ccc(C)c(-n2nc(C(=O)NC(CC(=O)O)c3cccc(F)c3)cc2O)c1` (centres unmarked) [Example 49] was tested, and the pIC50 was 4.52 to 6.00.
In the case of `Cc1ccc(C(CC(=O)O)NC(=O)c2cc(O)n(-c3cc(C)ccc3C)n2)cc1` (centres unmarked) [Example 50], the pIC50 was 4.52 to 6.00.
For `Cc1cccc(C(CC(=O)O)NC(=O)c2cc(O)n(-c3cc(C)ccc3C)n2)c1` (centres unmarked) [Example 51], the pIC50 was 4.52 to 6.00.
`Cc1ccc(C)c(-n2nc(C(=O)NC(CC(=O)O)c3ccc(C#N)cc3)cc2O)c1` (centres unmarked) [Example 52] gave a pIC50 of 4.52 to 6.00.
`Cc1ccc(C)c(-n2nc(C(=O)NC(CC(=O)O)c3cccc(C(F)(F)F)c3)cc2O)c1` (centres unmarked) [Example 53] showed a pIC50 of 4.52 to 6.00.
In the case of `COc1ccc(C(CC(=O)O)NC(=O)c2cc(O)n(-c3cc(C)ccc3C)n2)cc1F` (centres unmarked) [Example 54], the pIC50 was 4.52 to 6.00.
With `Cc1ccc(C)c(-n2nc(C(=O)NC(CC(=O)O)c3ccc(-c4ccccc4)cc3)cc2O)c1` (centres unmarked) [Example 55] the pIC50 was 6.00 to 7.00.
For `Cc1ccc(C)c(-n2nc(C(=O)NC(CC(=O)O)c3cc(F)cc(F)c3)cc2O)c1` (centres unmarked) [Example 56], the pIC50 was 4.52 to 6.00.
`Cc1ccc(C)c(-n2nc(C(=O)NC(CC(=O)O)c3ccc(C(F)(F)F)cc3)cc2O)c1` (centres unmarked) [Example 57] was tested, and the pIC50 was 4.52 to 6.00.
`O=C(O)CC(NC(=O)c1cc(O)n(-c2ccccc2)n1)c1ccc(Cl)cc1` (centres unmarked) [Example 58] showed a pIC50 of 6.00 to 7.00.
For `O=C(O)CC(NC(=O)c1cc(O)n(-c2ccccc2)n1)c1cc(C(F)(F)F)cc(C(F)(F)F)c1` (centres unmarked) [Example 59], the pIC50 was 4.52 to 6.00.
In the case of `O=C(O)CC(NC(=O)c1cc(O)n(-c2ccccc2)n1)c1ccc(F)c(F)c1` (centres unmarked) [Example 60], the pIC50 was 4.52 to 6.00.
Molecule `O=C(O)CC(NC(=O)c1cc(O)n(-c2ccccc2)n1)c1ccc(F)cc1` (centres unmarked) [Example 61] has a pIC50 of 4.52 to 6.00.
Work on `O=C(O)CC(NC(=O)c1cc(O)n(-c2ccccc2)n1)c1ccc(Cl)c(Cl)c1` (centres unmarked) [Example 62] yielded a pIC50 of 6.00 to 7.00.
Work on `O=C(O)CC(NC(=O)c1cc(O)n(-c2ccccc2)n1)c1cccc(F)c1` (centres unmarked) [Example 63] yielded a pIC50 of 4.52 to 6.00.
In the case of `Cc1ccc(C(CC(=O)O)NC(=O)c2cc(O)n(-c3ccccc3)n2)cc1` (centres unmarked) [Example 64], the pIC50 was 6.00 to 7.00.
`Cc1cccc(C(CC(=O)O)NC(=O)c2cc(O)n(-c3ccccc3)n2)c1` (centres unmarked) [Example 65] gave a pIC50 of 6.00 to 7.00.
For `CC(C)(C)c1ccc(C(CC(=O)O)NC(=O)c2cc(O)n(-c3ccccc3)n2)cc1` (centres unmarked) [Example 66], the pIC50 was 4.52 to 6.00.
For `O=C(O)CC(NC(=O)c1cc(O)n(-c2ccccc2)n1)c1cccc(C(F)(F)F)c1` (centres unmarked) [Example 67], the pIC50 was 6.00 to 7.00.
`COc1ccc(C(CC(=O)O)NC(=O)c2cc(O)n(-c3ccccc3)n2)cc1F` (centres unmarked) [Example 68] was tested, and the pIC50 was 4.52 to 6.00.
For `O=C(O)CC(NC(=O)c1cc(O)n(-c2ccccc2)n1)c1ccc(-c2ccccc2)cc1` (centres unmarked) [Example 69], the pIC50 was 6.00 to 7.00.
In the case of `O=C(O)CC(NC(=O)c1cc(O)n(-c2ccccc2)n1)c1cc(F)cc(F)c1` (centres unmarked) [Example 70], the pIC50 was 4.52 to 6.00.
`O=C(O)CC(NC(=O)c1cc(O)n(-c2ccccc2)n1)c1ccc(C(F)(F)F)cc1` (centres unmarked) [Example 71] showed a pIC50 of 4.52 to 6.00.
For `O=C(O)CC(NC(=O)c1cc(O)n(-c2ccc(F)c(Cl)c2)n1)c1ccc(F)cc1` (centres unmarked) [Example 72], the pIC50 was 4.52 to 6.00.
`O=C(O)CC(NC(=O)c1cc(O)n(-c2ccc(Cl)cc2)n1)c1ccc(F)cc1` (centres unmarked) [Example 73, 3-{[1-(4-Chloro-phenyl)-5-hydroxy-1H-pyrazole-3-carbonyl]-amino}-3-(4-fluoro-phenyl)-propionic acid] showed a pIC50 of 4.52 to 6.00.
`Cc1ccccc1[C@H](CC(=O)O)NC(=O)c1cc(O)n(-c2cccc(F)c2)n1` [Example 74] was tested, and the pIC50 was > 7.00.
With `Cc1ccccc1[C@H](CC(=O)O)NC(=O)c1cc(O)n(-c2cccc(Cl)c2)n1` [Example 75] the pIC50 was 6.00 to 7.00.
In the case of `Cc1ccccc1[C@H](CC(=O)O)NC(=O)c1cc(O)n(-c2ccc(F)cc2)n1` [Example 76], the pIC50 was > 7.00.
`Cc1ccccc1[C@H](CC(=O)O)NC(=O)c1cc(O)n(-c2ccccc2Cl)n1` [Example 77] was tested, and the pIC50 was > 7.00.
`Cc1cc(C)cc(-n2nc(C(=O)NC(CC(=O)O)c3ccccc3C)cc2O)c1` (centres unmarked) [Example 78] showed a pIC50 of 4.52 to 6.00.
Molecule `Cc1ccccc1C(CC(=O)O)NC(=O)c1cc(O)n(-c2ccc(Cl)cc2)n1` (centres unmarked) [Example 79] has a pIC50 of 6.00 to 7.00.
Work on `Cc1ccccc1C(CC(=O)O)NC(=O)c1cc(O)n(-c2ccc(F)c(Cl)c2)n1` (centres unmarked) [Example 80] yielded a pIC50 of 6.00 to 7.00.
In the case of `Cc1ccccc1[C@H](CC(=O)O)NC(=O)c1cc(O)n(-c2ccccc2)n1` [Example 82], the pIC50 was > 7.00.
`Cc1ccccc1[C@@H](CC(=O)O)NC(=O)c1cc(O)n(-c2ccccc2)n1` [Example 83] was tested, and the pIC50 was 4.52 to 6.00.
Molecule `Cc1ccc(C(CC(=O)O)NC(=O)c2cc(O)n(-c3ccccc3)n2)c(C)c1` (centres unmarked) [Example 84] has a pIC50 of 6.00 to 7.00.
`Cc1cc(F)ccc1C(CC(=O)O)NC(=O)c1cc(O)n(-c2ccccc2)n1` (centres unmarked) [Example 85] gave a pIC50 of 6.00 to 7.00.
`O=C(O)CC(NC(=O)c1cc(O)n(-c2ccc(F)cc2)n1)c1ccc(F)cc1F` (centres unmarked) [Example 86] showed a pIC50 of 4.52 to 6.00.
`COc1ccc(-n2nc(C(=O)N[C@@H](CC(=O)O)c3ccccc3C)cc2O)cc1` [Example 87] showed a pIC50 of 6.00 to 7.00.
Work on `COc1ccc(C(CC(=O)O)NC(=O)c2cc(O)n(-c3ccc(F)c(Cl)c3)n2)c(F)c1` (centres unmarked) [Example 88] yielded a pIC50 of 4.52 to 6.00.
For `Cc1ccc(C(CC(=O)O)NC(=O)c2cc(O)n(-c3ccc(F)cc3)n2)c(C)c1` (centres unmarked) [Example 89], the pIC50 was 6.00 to 7.00.
In the case of `COc1ccc(C(CC(=O)O)NC(=O)c2cc(O)n(-c3ccc(F)cc3)n2)c(F)c1` (centres unmarked) [Example 90], the pIC50 was 4.52 to 6.00.
`Cc1ccc(C(CC(=O)O)NC(=O)c2cc(O)n(-c3ccc(F)c(Cl)c3)n2)c(C)c1` (centres unmarked) [Example 91] gave a pIC50 of 4.52 to 6.00.
For `COc1ccc(C(CC(=O)O)NC(=O)c2cc(O)n(-c3ccccc3)n2)c(F)c1` (centres unmarked) [Example 92], the pIC50 was 6.00 to 7.00.
Work on `COc1cccc(-n2nc(C(=O)N[C@@H](CC(=O)O)c3ccccc3C)cc2O)c1` [Example 94] yielded a pIC50 of 6.00 to 7.00.
Work on `O=C(O)C[C@H](NC(=O)c1cc(O)n(-c2ccccc2)n1)c1ccc(Cl)cc1Cl` [Example 95] yielded a pIC50 of 6.00 to 7.00.
With `O=C(O)C[C@H](NC(=O)c1cc(O)n(-c2ccccc2)n1)c1ccccc1F` [Example 96] the pIC50 was 6.00 to 7.00.
Work on `O=C(O)C[C@H](NC(=O)c1cc(O)n(-c2ccccc2)n1)c1ccccc1C(F)(F)F` [Example 97] yielded a pIC50 of 6.00 to 7.00.
In the case of `O=C(O)C[C@H](NC(=O)c1cc(O)n(-c2ccccc2)n1)c1ccc(Cl)cc1` [Example 98], the pIC50 was 6.00 to 7.00.
`O=C(O)C[C@H](NC(=O)c1cc(O)n(-c2ccccc2)n1)c1ccc(C(F)(F)F)cc1` [Example 99] showed a pIC50 of 6.00 to 7.00.
In the case of `COc1ccccc1[C@H](CC(=O)O)NC(=O)c1cc(O)n(-c2ccccc2)n1` [Example 100], the pIC50 was 6.00 to 7.00.
`N#Cc1ccc([C@H](CC(=O)O)NC(=O)c2cc(O)n(-c3ccccc3)n2)cc1` [Example 101] gave a pIC50 of 6.00 to 7.00.
`O=C(O)CC(NC(=O)c1cc(O)n(-c2ccccc2)n1)c1ccc(Oc2ccccc2)cc1` (centres unmarked) [Example 102] gave a pIC50 of 6.00 to 7.00.
`O=C(O)C[C@H](NC(=O)c1cc(O)n(-c2ccccc2)n1)c1c(F)cccc1F` [Example 103] was tested, and the pIC50 was 6.00 to 7.00.
`O=C(O)CC(NC(=O)c1cc(O)n(-c2ccccc2)n1)c1ccc(-c2ccc(F)cc2)cc1` (centres unmarked) [Example 104] showed a pIC50 of 6.00 to 7.00.
Molecule `O=C(O)CC(NC(=O)c1cc(O)n(-c2ccccc2)n1)c1ccc(-n2ccnc2)cc1` (centres unmarked) [Example 105] has a pIC50 of 4.52 to 6.00.
In the case of `O=C(O)C[C@H](NC(=O)c1cc(O)n(-c2ccccc2Cl)n1)c1ccc(Cl)cc1Cl` [Example 106], the pIC50 was 6.00 to 7.00.
`O=C(O)C[C@H](NC(=O)c1cc(O)n(-c2ccccc2Cl)n1)c1ccccc1F` [Example 107] was tested, and the pIC50 was 6.00 to 7.00.
`O=C(O)C[C@H](NC(=O)c1cc(O)n(-c2ccccc2Cl)n1)c1ccccc1C(F)(F)F` [Example 108] was tested, and the pIC50 was 6.00 to 7.00.
With `O=C(O)C[C@H](NC(=O)c1cc(O)n(-c2ccccc2Cl)n1)c1ccc(Cl)cc1` [Example 109] the pIC50 was 6.00 to 7.00.
`O=C(O)C[C@H](NC(=O)c1cc(O)n(-c2ccccc2Cl)n1)c1ccc(C(F)(F)F)cc1` [Example 110] was tested, and the pIC50 was 6.00 to 7.00.
